# Measurements from patent EP4786487A1, “PEPTIDE” (Peptidream Inc, priority 2023, dated 2025).
# Read-outs that look alike come from different tables or passages of the source. Starred links: 1 amine or outer side, 2 acyl side, 3 side chain; linkers in the order of their positions; H or OH if unused. Positions of bridges follow the written chain, without caps; N, C: chain ends. Non-standard residues stand in square brackets, D forms with d. Residues, ends and D or L forms follow the SMILES beside them. Groups on a side chain read outwards from the residue. *: point of attachment. Phe(3-OCH2COOH) = N[C@@H](Cc1cccc(OCC(=O)O)c1)C(=O)O; Trp(1-Ph) = N[C@@H](Cc1cn(-c2ccccc2)c2ccccc12)C(=O)O; Phe(4-COOH) = N[C@@H](Cc1ccc(C(=O)O)cc1)C(=O)O; Trp(7-aza) = N[C@@H](Cc1c[nH]c2ncccc12)C(=O)O; Piperazinyl(4-CH2COOH) = O=C(O)CN1CCN(*)CC1; 3Pal(6-NH2) = Nc1ccc(C[C@H](N)C(=O)O)cn1; Gly(N(CH2)3COOH) = O=C(O)CCCNCC(=O)O; X1 = CCCCCCC[C@H](N[*:1])C(=O)[*:2]; Gly(N-(CH2)3OMe) = COCCCNCC(=O)O; NMeF = CN[C@@H](Cc1ccccc1)C(=O)O; 4Pal = N[C@@H](Cc1ccncc1)C(=O)O; NMeA = CN[C@@H](C)C(=O)O; CO = O=C([*:1])[*:2]; Sar = CNCC(=O)O
# Tests used:
# Myostatin = target: T1, Myostatin (Homo sapiens, UniProt O14793); experiment: HepG2 reporter gene assay, Evaluation Procedure (2): 2-concentrations assay, myostatin inhibition; assay type: cell-based; details: HepG2
# T1 construct: active myostatin (also called mature myostatin) is a homodimer consisting of two C-terminal growth factor domains; purchased R&D systems 788-G8/CF
# T1 sequence (O14793 267-375): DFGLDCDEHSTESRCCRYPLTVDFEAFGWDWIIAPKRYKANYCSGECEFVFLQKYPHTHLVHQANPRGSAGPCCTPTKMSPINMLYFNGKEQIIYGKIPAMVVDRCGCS
# Description: (§1) The pGL3(CAGA)12-luc plasmid, namely a pGL3 vector (E1751, Promega) having a luciferase gene inserted downstream of a promoter sequence with 12 CAGA repeats attached, was transfected into HepG2 cell line (HB-8065, ATCC). The culture of HepG2 cell line (HB-8065, ATCC) was performed as in the Evaluation Procedure (1).
# (§2) Myostatin (788-G8/CF, R&D systems) or GDF-11 (1958-GD-G8/CF, R&D systems) was added at a final concentration of 10 ng/mL. […] At this time, blank wells, in which neither myostatin, GDF-11, nor each peptide was added, were also prepared and incubated in a CO2 incubator (37°C, 5% CO2) for 20 to 24 hours.
# (§3) The medium containing the cells was removed, and a mixture containing PBS (14190144, Thermo) and a chromogenic substrate One-Glo Luciferase Assay System (E6120, Promega) at a ratio of 1:1 was added to each well at 100 µL/well. This was stirred with a plate shaker for 5 min and transferred to a 384-well plate (3570, Corning) at a volume of 20 µL/well.
# (§4) The plate was centrifuged at 1,000 × g for 1 min and the luminescence signal (700 nm luminescence) was measured using a plate reader (Envision 2104, PerkinElmer). Based on the measurement results, the inhibition rate at each peptide concentration was calculated. […]
# GDF-11 = target: T2, GDF-11 (Homo sapiens, UniProt O95390); experiment: HepG2 reporter gene assay, Evaluation Procedure (2): 2-concentrations assay, GDF-11 inhibition; assay type: cell-based; details: for inhibition at 0.03 µM: HepG2, peptide 30nM, read-out: GDF11 Inhibition 30nM; for inhibition at 0.03 µM / inhibition at 0.1 µM: GDF-11 10 ng/mL; for inhibition at 0.1 µM: HepG2, peptide 100nM, read-out: GDF11 Inhibition 100nM; for inhibition: read-out: inhibition rate (GDF-11 inhibition assay)
# T2 construct: purchased R&D systems 1958-GD-G8/CF
# T2 sequence (O95390 299-407): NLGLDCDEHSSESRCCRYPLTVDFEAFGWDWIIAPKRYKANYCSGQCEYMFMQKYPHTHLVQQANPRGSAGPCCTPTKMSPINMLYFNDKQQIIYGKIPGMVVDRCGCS
# Description: as §1, §2, §3, §4
# [1] = peptide 30nM, Myostatin 10 ng/mL, read-out: Myostatin Inhibition 30nM
# [2] = peptide 100nM, Myostatin 10 ng/mL, read-out: Myostatin Inhibition 100nM
# [3] = Table 7-3/7-4, myostatin 10 ng/mL, peptide at the higher of the 2 concentrations, read-out: inhibition rate (myostatin inhibition assay)
# [4] = Table 7-3/7-4, myostatin 10 ng/mL, peptide at the lower of the 2 concentrations, read-out: inhibition rate (myostatin inhibition assay)
# [5] = HepG2, first GDF-11 column of Table 7-3/7-4, GDF-11 10 ng/mL, peptide at the lower of the 2 concentrations
# [6] = HepG2, second GDF-11 column of Table 7-3/7-4, GDF-11 10 ng/mL, peptide at the higher of the 2 concentrations
smiles,measurement,setting,value
CC[C@H](C)[C@@H]1NC(=O)[C@H](Cc2ccccc2)N(C)C(=O)[C@H](Cc2ccc(N)nc2)NC(=O)[C@H](Cc2c[nH]c3ncccc23)NC(=O)[C@H](C)NC(=O)CN(CCCC(=O)O)C(=O)CSC[C@H](C(N)=O)NC(=O)[C@H](Cc2ccccc2)N(C)C(=O)[C@H](C)N(C)C(=O)[C@H](CC(C)C)NC(=O)[C@H](Cc2ccccc2)N(C)C(=O)[C@H](CCCNC(=N)N)NC(=O)[C@H](Cc2ccc(C(=O)O)cc2)NC(=O)[C@H](Cc2ccccc2)NC(=O)CN(C)C1=O [Myostatin_99_Variant_24] ({CH2CO}-[Gly(N(CH2)3COOH)]A[Trp(7-aza)][3Pal(6-NH2)][NMeF]I[Sar]F[Phe(4-COOH)]R[NMeF]L[NMeA][NMeF][dC]-NH2; thioether N-15),inhibition at 0.03 µM,Myostatin; [1],1%
same,inhibition at 0.1 µM,Myostatin; [2],54%
same,inhibition at 0.03 µM,GDF-11,0%
same,inhibition at 0.1 µM,GDF-11,0%
CCCCCCC[C@@H]1NC(=O)[C@H](Cc2ccccc2)N(C)C(=O)[C@H](CCCNC(=N)N)NC(=O)[C@H](Cc2ccc(C(=O)O)cc2)NC(=O)[C@H](Cc2ccncc2)NC(=O)CN(C)C(=O)[C@H]([C@@H](C)CC)NC(=O)[C@H](Cc2ccccc2)N(C)C(=O)[C@H](Cc2ccc(O)cc2)NC(=O)[C@H](Cc2c[nH]c3ccccc23)NC(=O)[C@H](C)NC(=O)CN(CCCOC)C(=O)CSC[C@H](C(=O)O)NC(=O)[C@H](Cc2ccccc2)N(C)C(=O)[C@H](C)N(C)C1=O [Myostatin_99_v223] ({CH2CO}-[Gly(N-(CH2)3OMe)]AWY[NMeF]I[Sar][4Pal][Phe(4-COOH)]R[NMeF][X1][NMeA][NMeF][dC]-OH; thioether N-15),inhibition at 0.03 µM,Myostatin; [1],94%
same,inhibition at 0.1 µM,Myostatin; [2],99%
same,inhibition at 0.03 µM,GDF-11,0%
same,inhibition at 0.1 µM,GDF-11,28%
CCCCCCC[C@@H]1NC(=O)[C@H](Cc2ccccc2)N(C)C(=O)[C@H](CCCNC(=N)N)NC(=O)[C@H](Cc2ccc(C(=O)O)cc2)NC(=O)[C@H](Cc2cccc(OCC(=O)O)c2)NC(=O)[C@H](C)N(C)C(=O)[C@H]([C@@H](C)CC)NC(=O)[C@H](Cc2ccccc2)N(C)C(=O)[C@H](Cc2ccc(O)cc2)NC(=O)[C@H](Cc2c[nH]c3ccccc23)NC(=O)[C@H](C)NC(=O)CN(CCCC(=O)O)C(=O)CSC[C@H](C(=O)N[C@@H](CCCCNC(=O)N2CCN(CC(=O)O)CC2)C(=O)O)NC(=O)[C@H](Cc2ccccc2)N(C)C(=O)[C@H](C)N(C)C1=O [Myostatin_99_v428] ({CH2CO}-[Gly(N(CH2)3COOH)]AWY[NMeF]I[NMeA][Phe(3-OCH2COOH)][Phe(4-COOH)]R[NMeF][X1][NMeA][NMeF][dC]K([CO-Piperazinyl(4-CH2COOH)])-OH; thioether N-15),inhibition at 0.1 µM,Myostatin; [3],99%
same,inhibition at 0.03 µM,Myostatin; [4],96%
same,inhibition,GDF-11; [5],0%
same,inhibition,GDF-11; [6],0%
CCCCCCC[C@@H]1NC(=O)[C@H](Cc2ccccc2)N(C)C(=O)[C@H](CCCNC(=N)N)NC(=O)[C@H](Cc2ccc(C(=O)O)cc2)NC(=O)[C@H](Cc2cccc(OCC(=O)O)c2)NC(=O)[C@H](C)N(C)C(=O)[C@H]([C@@H](C)CC)NC(=O)[C@H](Cc2ccccc2)N(C)C(=O)[C@H](Cc2ccc(O)cc2)NC(=O)[C@H](Cc2cn(-c3ccccc3)c3ccccc23)NC(=O)[C@H](C)NC(=O)CN(CCCC(=O)O)C(=O)CSC[C@H](C(=O)O)NC(=O)[C@H](Cc2ccccc2)N(C)C(=O)[C@H](C)N(C)C1=O [Myostatin_99_v380] ({CH2CO}-[Gly(N(CH2)3COOH)]A[Trp(1-Ph)]Y[NMeF]I[NMeA][Phe(3-OCH2COOH)][Phe(4-COOH)]R[NMeF][X1][NMeA][NMeF][dC]-OH; thioether N-15),inhibition at 0.1 µM,Myostatin; [3],100%
same,inhibition at 0.03 µM,Myostatin; [4],100%
same,inhibition,GDF-11; [5],0%
same,inhibition,GDF-11; [6],0%
